Test results taken from US4670419A, “Pharmaceutical composition and its rectal use” (Takeda Chemical Industries, Ltd., priority 1982, dated 1987).

Experiments:
in vivo [1] = details: female, SD, rat, iv, 100 ug/kg
Procedure: (§1) SD-strain mature female rats (weighing about 270 g, 14 to 18 weeks old, in groups of 4 to 5 individuals) at diestrus as selected by the vaginal smear test covering a period of at least one week are anesthetized with pentobarbital and phenobarbital at 8-11 a.m., and a solution prepared by dissolving 500 μg of TAP-144 and 20 mg (2%), 50 mg (5%) or 100 mg (10%) of α-cyclodextrin in physiological saline in an amount to make 1 ml is administered into the vagina with about 12 mg of cotton soaked therewith at the dose level of 0.2 ml/kg (corresponding 100 μg/kg of TAP-144).

[2] = rat, in vivo
Procedure: as §1

in vivo [3] = details: rat, 100 ug/kg, Concentration in Serum
Procedure: In 0.1 ml of physiological saline are dissolved 100 μg of TAP-144 and 5 mg of α-cyclodextrin, and in the manner of Experimental Example 1, the 0.1 ml/kg equivalent of the solution is administered into the nasal cavity (the dose of TAP-144: 100 μg/kg).

level at 5 min (in vivo [1]): 212 ng/mL
level at 10 min (in vivo [1]): 173 ng/mL
level at 0.5 h (in vivo [1]): 74.2 ng/mL
level at 1 h (in vivo [1]): 39.3 ng/mL
level at 2 h (in vivo [1]): 6.76 ng/mL
level at 4 h (in vivo [1]): 1.83 ng/mL
level at 6 h (in vivo [1]): < 0.13 ng/mL
promotion of vaginal absorption as compared with the control vaginal preparation [2]: about 6 times
Concentration of TAP-144 in serum ([2]; 100 ug/kg, 0.5 h): 32.1 ng/mL
level at 0.5 h (in vivo [3]; SD (Sprague-Dawley), sc): 44 ng/mL
level at 1 h (in vivo [3]; SD (Sprague-Dawley), sc): 40.2 ng/mL
level at 2 h (in vivo [3]; SD (Sprague-Dawley), sc): 24 ng/mL
level at 4 h (in vivo [3]; SD (Sprague-Dawley), sc): 6.7 ng/mL
level at 0.5 h (in vivo [3]; SD, inhaled or intranasal): 3.2 ng/mL
level at 4 h (in vivo [3]; SD, inhaled or intranasal): 3.9 ng/mL
SMILES: CCNC(=O)[C@@H]1CCCN1C(=O)[C@H](CCCNC(=N)N)NC(=O)[C@H](CC(C)C)NC(=O)[C@@H](CC(C)C)NC(=O)[C@H](Cc1ccc(O)cc1)NC(=O)[C@H](CO)NC(=O)[C@H](Cc1c[nH]c2ccccc12)NC(=O)[C@H](Cc1c[nH]cn1)NC(=O)[C@@H]1CCC(=O)N1 [TAP-144]
